# Measured values: patent US20260008746A1, “CATIONIC LIPID COMPOUND WITH HIGH EFFICIENCY, LOW TOXICITY AND STABLE EXPRESSION, AND COMPOSITION COMPRISNG SAME” (HANGZHOU TIANLONG PHARMACEUTICAL CO., LTD, priority 2023, published 2026)
# How the values were obtained:
# [1] = tested on: BALB/C mice; assay: In vivo imaging of Fluc-mRNA expression in mice delivered by LNP formulations; conditions: for average radiation intensity, 6 h / average radiation intensity, 24 h / average radiation intensity, 48 h / average radiation intensity, 7 d: LNP containing 10 pg Fluc-mRNA, intramuscular, female BALB/C mice
# Procedure: The LNP formulation containing […] Fluc-mRNA was injected intramuscularly into female BALB/C mice aged 4-6 weeks old and weighed 17-19 g, and the mice were intraperitoneally injected with fluorescent imaging substrate at specific time points after administration (6h, 24 h, 48h and 7d), where the mice were allowed to move freely for 5 minutes, and then the average radiation intensity (corresponding to fluorescence expression intensity) of the protein expression of the mRNA carried by the LNP in the mice was detected by the IVIS Spectrum small animal in vivo imaging device. The test results are shown in Tables 11 to 14 and FIGS. 12 to 14.
# [2] = Determination of particle size and polydispersity index (PDI) of lipid nanoparticles by dynamic light scattering; type: physicochemical; conditions: LNP formulation of named cationic lipid/DSPC/cholesterol/DMG-PEG2000 49:10:39.5:1.5; for Particle size (nm): 90° scattering angle, 25° C
# Procedure: The cationic lipids listed in Table 1 were dissolved in ethanol with DSPC (AVT (Shanghai) Pharmaceutical Technology Co., Ltd.), cholesterol (AVT (Shanghai) Pharmaceutical Technology Co., Ltd.) and DMG-PEG2000 according to a molar ratio of 49:10:39.5:1.5, respectively, to prepare lipid solution in ethanol. The lipid solution in ethanol was quickly added to citrate buffer (pH=4 to 5) by ethanol injection method, and vortexed for 30 s for later use. eGFP-mRNA (from Shanghai Biohub International Trade Co., Ltd) or Fluc-mRNA (from Shanghai Biohub International Trade Co., Ltd) was diluted in citrate buffer (pH=4 to 5) to give an aqueous mRNA solution. A certain volume of liposome solution and mRNA aqueous solution were used to prepare liposomes at a weight ratio of total lipids to mRNA of 15:1. The mixtures were sonicated at 25° C. for 15 min (with an ultrasonic frequency of 40 kHz and an ultrasonic power of 800 W). The resulting liposomes were diluted to 10 times volume with PBS, and then ultrafiltered with a 300 KDa ultrafiltration tube to remove ethanol. Then the volume was fixed to a certain volume with PBS to give an LNP formulation encapsulating eGFP-mRNA or Fluc-mRNA using cationic lipid/DSPC/cholesterol/DMG-PEG2000 (49:10:39.5:1.5 in molar percentage).
# The particle size and polydispersity index (PDI) were determined by dynamic light scattering using Malvern laser particle size analyzer.
# 10 μL of the liposome solution was weighed, diluted to 1 mL with RNase-free deionized water, and added to the sample pool. Each sample was measured in triplicate. The measurement conditions were: 90° scattering angle, and 25° C.
# [3] = tested on: 293T cells; assay: Fluorescent detection of Fluc-mRNA (cell transfection efficiency of LNP formulations); type: cell-based; conditions: for Relative light unit (RLU): LNP formulation containing 0.3 μg Fluc-mRNA, 96-well plate, 24 hours; for Multiples (YK-101): RLU of YK-101 / RLU of named substance; for Multiples (YK-107): RLU of YK-107 / RLU of named substance; for Multiples (YK-108): RLU of YK-108 / RLU of named substance; for Ratio relative to SM-102: RLU of named substance / RLU of SM-102
# How it was run: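 293T cells seeded at 10,000 per well, cultured overnight, then given LNP carrying 0.3 μg Fluc-mRNA (cationic:neutral:structured:PEG-lipid 49:10:39.5:1.5 molar). Incubated 24 h. Luciferase signal read with kit reagent on an IVIS imaging system.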
# [4] = tested on: 293T cells; assay: Cell survival rate determination (CCK-8); type: cell-based; conditions: for Cell survival rate (%): LNP formulation containing 1.5 μg Fluc-mRNA, 24 hours, CCK-8, absorbance at 450 nm; for cell survival rate lower than that of YK-101: cell survival rate of YK-101 minus that of named substance; for cell survival rate lower than that of YK-107: cell survival rate of YK-107 minus that of named substance; for cell survival rate lower than that of YK-108: cell survival rate of YK-108 minus that of named substance
# How it was run: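 293T cells were seeded overnight at 10,000 cells/well in 96-well plates, then exposed for 24 h to LNP containing 1.5 μg Fluc-mRNA (cationic:neutral:structural:polymer-conjugated lipid, 49:10:39.5:1.5 molar) or to Lipofectamine 3000. Viability was read by CCK-8, 1 h incubation, absorbance 450 nm.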
PDI(%) [2] [%],Particle size (nm) [2] [nm],Compound,"average radiation intensity of YK-101, times that of named substance ([1]; 6 h) [times]","average radiation intensity of YK-107, times that of named substance ([1]; 6 h) [times]","average radiation intensity of YK-108, times that of named substance ([1]; 6 h) [times]","average radiation intensity of YK-101, times that of named substance ([1]; 24 h) [times]","average radiation intensity of YK-107, times that of named substance ([1]; 24 h) [times]","average radiation intensity of YK-108, times that of named substance ([1]; 24 h) [times]","average radiation intensity of YK-101, times that of named substance ([1]; 48 h) [times]","average radiation intensity of YK-107, times that of named substance ([1]; 48 h) [times]","average radiation intensity of YK-108, times that of named substance ([1]; 48 h) [times]","average radiation intensity of YK-101, times that of named substance ([1]; 7 d) [times]","average radiation intensity of YK-107, times that of named substance ([1]; 7 d) [times]","average radiation intensity of YK-108, times that of named substance ([1]; 7 d) [times]","average radiation intensity, 6 h ([1]; 6 h)","average radiation intensity, 24 h ([1]; 24 h)","average radiation intensity, 7 d ([1]; 7 d)",Relative light unit (RLU) [3] [RLU],Multiples (YK-101) [3],Multiples (YK-107) [3],also measured
15.0,209,"CCCCCCCCC(CCCCCC)C(=O)OCCCCCCN(CCCCO)CCCCCCOC(=O)C(CCCCCC)CCCCCCCC (centres unmarked) [ALC-0315, reference compound]",1.8,1.9,2.4,5.9,7.2,7.8,4.8,5.8,5.9,1.8,2.0,2.1,830590,179680,6643,2056890,9.89,10.87,"average radiation intensity, 48 h ([1]; 48 h): 39015; Multiples (YK-108) [3]: 11.99; Ratio relative to SM-102 [3]: 1.34; Cell survival rate (%) [4]: 51.02%; cell survival rate lower than that of YK-101 [4]: 39.10%; cell survival rate lower than that of YK-107 [4]: 39.43%; cell survival rate lower than that of YK-108 [4]: 38.84%"
12.5,151,"CCCCCCCCC(CCCCCCCC)OC(=O)CCCCCCCN(CCO)CCCCCCCC(=O)OCCC(CCCCCC)CCCCCC [Compound 21, 9-heptadecyl 8-(8-((3-hexylnonyl)oxy)-8-oxoctyl)-((2-hydroxyethyl)amino)octoate, reference compound]",2.5,2.6,3.3,9.6,11.8,12.8,6.0,7.3,7.4,2.0,2.2,2.4,606680,110210,6024,1389141,14.64,16.10,"average radiation intensity, 48 h ([1]; 48 h): 31062; Multiples (YK-108) [3]: 17.75; Ratio relative to SM-102 [3]: 0.91; Cell survival rate (%) [4]: 68.53%; cell survival rate lower than that of YK-101 [4]: 21.59%; cell survival rate lower than that of YK-107 [4]: 21.92%; cell survival rate lower than that of YK-108 [4]: 21.33%"
7.7,140,"CCCCCCC(CCCCCC)CCOC(=O)CCCCCCCN(CCO)CCCCCCCC(=O)OCCC(CCCCCC)CCCCCC [Compound 23, bis(3-hexylnonyl)-8, 8′-((2-hydroxyethyl)azadialkyl)dioctanoate, reference compound]",2.5,2.7,3.4,9.4,11.6,12.5,5.6,6.8,7.0,2.1,2.3,2.4,599850,112670,5863,1290824,15.75,17.32,"average radiation intensity, 48 h ([1]; 48 h): 33060; Multiples (YK-108) [3]: 19.10; Ratio relative to SM-102 [3]: 0.84; Cell survival rate (%) [4]: 70.91%; cell survival rate lower than that of YK-101 [4]: 19.21%; cell survival rate lower than that of YK-107 [4]: 19.54%; cell survival rate lower than that of YK-108 [4]: 18.95%"
12.2,138,"CCCCCCCCCCCCC(O)CN(C)CCCCCC(=O)OCC(CCCCCC)CCCCCCCC (centres unmarked) [HHMA, reference compound]",2.3,2.5,3.2,9.1,11.3,12.2,6.0,7.3,7.5,2.3,2.5,2.7,639280,115530,5235,2047757,9.93,10.92,Multiples (YK-108) [3]: 12.04; Ratio relative to SM-102 [3]: 1.33; Cell survival rate (%) [4]: 67.77%; cell survival rate lower than that of YK-101 [4]: 22.35%; cell survival rate lower than that of YK-107 [4]: 22.68%; cell survival rate lower than that of YK-108 [4]: 22.09%
